# From patent US9918983B2, “Suicidal LSD1 inhibitors targeting SOX2-expressing cancer cells” (THE BOARD OF REGENTS OF THE NEVADA SYSTEM OF HIGHER …, priority 2013, dated 2018)
# Experiments:
# [1] = target: T1, LSD1-CoREST-HDAC1 complex (Homo sapiens, UniProt O60341+Q13547); experiment: Reconstituted LSD1-CoREST-HDAC1 complex on oligonucleosomes; format: biochemical; details: 50 μM CBB1007 or 2 μM MS-275
# T1 construct: Human LSD1 and HDAC1 full-length cDNAs were obtained from Open Biosystems; GST (N, cleaved yes); made in house; host or cells: Escherichia coli BL21
# Description: For the reconstitution reaction, recombinant GST-CoREST, His-LSD1, and recombinant HDAC1 (rHDAC1) (GST was removed by the use of PreScission protease) (10 μg) were assembled into the LSD1-CoREST-HDAC1 complex and then pulled down by GSTSepharose resins. Protein A-Sepharose was used as a negative-control resin.
# Briefly, cells (1×10^6) were washed twice with ice-cold hypotonic buffer (20 mM potassium-HEPES, pH 7.8, 5 mM potassium acetate, 0.5 mM MgCl2, 0.5 mM DTT), swelled, and disrupted with 25 strokes in a Dounce homogenizer using a tightfitting pestle. Nuclei were pelleted at 4,000 rpm for 5 min and resuspended in buffer A (20 mM HEPES, pH 7.9, 1.5 mM magnesium acetate, 50 mM potassium acetate, 10% glycerol, 0.5 mM DTT, 150 mM NaCl, protease and phosphatase inhibitors). […] The chromatin pellet was resuspended in 0.5 mL buffer B (0.32 M sucrose, 50 mM Tris-HCl, pH 7.5, 4 mM MgCl2, 1 mM CaCl2, 0.1 mM phenylmethylsulfonyl fluoride) and incubated with 30 units of micrococcal nuclease for 10 min at 37° C. The digested samples were centrifuged at 8,000×g for 10 min, and the supernatant, which contained oligonucleosomes, was recovered.
# The reaction products (demethylated or deacetylated histones) were analyzed by Western blotting.
# LSD1-protein A complex = target: T2, LSD1-protein A complex (Mus musculus, UniProt Q6ZQ88); experiment: In vitro demethylation assay, immunoaffinity-purified LSD1-protein A complex from F9 cells; format: biochemical; details: dimethylated H3K4 peptide; 50 μM CBB1007 or 2 μM MS-275
# T2 construct: recombinant and endogenous LSD1 complexes isolated from F9 cells; endogenous in cells; host or cells: F9 mouse teratocarcinoma cells, anti-LSD1 immunoprecipitate on protein A-Sepharose
# Description: The immunocomplexes were captured by protein A-Sepharose. Isolated LSD1-protein A or HDAC1-protein A complexes were verified by Western blotting with LSD1 and HDAC1 antibodies.
# G401 cells = experiment: Cell growth/viability (MTT, microscopy); format: cell-based, human; details: 50 μM, 30 hours
# Description: Lung, breast, ovarian, and other carcinoma cells were either obtained from American Type Culture Collection (ATCC) or from the DTP and DCTD Tumor Repository of National Cancer Institute (the NCI-60 cancer cell line panel), operated by Charles River Laboratory, Inc., as listed in Table 1. They were cultured according to instructions and treated with various concentrations of LSD1 inhibitors for 30-36 hours for mRNA analysis by quantitative real time RT-PCR or for 30-48 hours for protein analysis and the cell viability assays using Western blotting or microscopy and MTT assays as described previously (Wang, J., et al. (2011) Cancer Research 71, 7238-7249).
# Alternatively, cell viability assays were conducted as previously described (Wang, J., et al. (2011) Cancer Research 71, 7238-7249). […] After removing the medium, 200 μL DMSO was added to dissolve formazan, followed by incubation for 10 minutes, and absorbance was measured at 490 nm by a Bio Red microplate reader. […] The cell viability rate was calculated as the relative percentage of MTT absorption as follows: % cell viability=(mean experimental absorbance/mean control absorbance)×100.
# Referring to FIG. 10B, Sox2-expressing myelogenous leukemia and rhabdoid tumor cells were also sensitive to LSD1 inhibitors. […] The statistical differences between compound treated and control groups were analyzed by One-way ANOVA. *: p<0.05 and **: p<0.01.
# [2] = target: T3, recombinant LSD1 (GST-LSD1) (Homo sapiens, UniProt O60341); experiment: In vitro demethylation assay, recombinant LSD1, H3K4me2 peptide; format: biochemical; details: dimethylated H3K4 peptide; 50 μM CBB1007 or 2 μM MS-275
# T3 construct: Human LSD1 and HDAC1 full-length cDNAs were obtained from Open Biosystems; GST (N, cleaved yes); made in house; host or cells: Escherichia coli BL21
# Description: H3K4me2 and H4K16ac were purchased from AnaSpec and Shanghai Science Peptide Biological Technology Co., Ltd., respectively. Human LSD1 and HDAC1 full-length cDNAs were obtained from Open Biosystems. Human CoREST cDNA was amplified by reverse transcription-PCR (RT-PCR) using mRNA isolated from HeLa cells. These cDNAs were fully sequenced and cloned into the pGEX-KG or pET28a vector and expressed as the glutathione S-transferase (GST)- or His-tagged fusion proteins in the Escherichia coli BL21 strain and affinity purified with glutathione or Ni-Sepharose (GE Healthcare, United Kingdom) resin. […]
# For a typical deacetylation assay, 1 μg rHDAC1 or 1 μg immunoprecipitated endogenous HDAC1-protein A complexes (from two 10-cm dishes) was incubated with 0.4 μg H4K16ac peptide in the presence or absence of 50 μM CBB1007 or 2 μM MS-275 at 30° C. for 1 h. The percentages of deacetylated products were analyzed by mass spectrometry, and the data were analyzed by GraphPad Prism (version 5) software. The reaction products were analyzed by mass spectrometry to separate the peptide substrate (H4K16ac) and the product (H4K16), as previously described (Wang, J., et al. (2011) Cancer Research 71, 7238-7249). […]
structure (smiles),measurement,setting,value
COC(=O)c1cc(CN2CCN(C(=N)N)CC2)cc(C(=O)N2CCN(C(=O)c3ccc(C(=N)N)cc3)CC2)c1 [CBB1007],HDAC1 deacetylase activity in the reconstituted complex,[1],partial inhibition of the HDAC1 deacetylase activity
same,LSD1 demethylase activity in the reconstituted complex,[1],inhibited the activity of LSD1 demethylase
same,demethylation activity of immunoaffinity-purified LSD1 (LSD1-protein A),LSD1-protein A complex,sensitive
same,cell growth,G401 cells,inhibited
same,demethylation activity of GST-LSD1,[2],sensitive
